Source: PubChem BioAssay (NCI)
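Abbreviation: GI50, concentration required for 50% inhibition of growth. TGI is the concentration that stops growth completely.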

Tests used:
Test in all cases: NCI anticancer screen, dose series, 384-well format
A549 NSCLC = test system: A549 NSCLC
M14 melanoma = test system: M14 melanoma
HOP-92 NSCLC = test system: HOP-92 NSCLC
A498 renal = test system: A498 renal
IGROV1 ovarian = test system: IGROV1 ovarian
MALME-3M melanoma = test system: MALME-3M melanoma
SN12C renal = test system: SN12C renal
RPMI-8226 leukemia = test system: RPMI-8226 leukemia
NCI-H322M lung = test system: NCI-H322M lung
LOX IMVI melanoma = test system: LOX IMVI melanoma
COLO 205 colon = test system: COLO 205 colon
SK-MEL-28 melanoma = test system: SK-MEL-28 melanoma
UO-31 renal = test system: UO-31 renal
MDA-MB-435 melanoma = test system: MDA-MB-435 melanoma
HCT-15 colon = test system: HCT-15 colon
T-47D breast = test system: T-47D breast
K-562 leukemia = test system: K-562 leukemia
UACC-62 melanoma = test system: UACC-62 melanoma
SNB-75 CNS = test system: SNB-75 CNS
HL-60(TB) leukemia = test system: HL-60(TB) leukemia
ACHN renal = test system: ACHN renal
KM12 colon = test system: KM12 colon
HCT-116 colon = test system: HCT-116 colon
SNB-19 CNS = test system: SNB-19 CNS
SK-MEL-5 melanoma = test system: SK-MEL-5 melanoma
NCI-H226 lung = test system: NCI-H226 lung
PC-3 prostate = test system: PC-3 prostate
U251 glioblastoma = test system: U251 glioblastoma
SK-OV-3 ovarian = test system: SK-OV-3 ovarian
NCI-H522 lung = test system: NCI-H522 lung
HCC-2998 colon = test system: HCC-2998 colon
NCI/ADR-RES ovarian = test system: NCI/ADR-RES ovarian
SF-295 CNS = test system: SF-295 CNS
DU-145 prostate = test system: DU-145 prostate
SF-268 CNS = test system: SF-268 CNS
SF-539 CNS = test system: SF-539 CNS
MOLT-4 leukemia = test system: MOLT-4 leukemia
MCF7 breast = test system: MCF7 breast
NCI-H460 NSCLC = test system: NCI-H460 NSCLC
BT-549 breast = test system: BT-549 breast
SW-620 colon = test system: SW-620 colon
CCRF-CEM leukemia = test system: CCRF-CEM leukemia
MDA-MB-231 breast = test system: MDA-MB-231 breast
OVCAR-8 ovarian = test system: OVCAR-8 ovarian
OVCAR-4 ovarian = test system: OVCAR-4 ovarian
HT29 colon = test system: HT29 colon
HS 578T breast = test system: HS 578T breast
TK-10 renal = test system: TK-10 renal
MDA-MB-468 breast = test system: MDA-MB-468 breast
SR leukemia = test system: SR leukemia
EKVX NSCLC = test system: EKVX NSCLC
HOP-62 NSCLC = test system: HOP-62 NSCLC
OVCAR-3 ovarian = test system: OVCAR-3 ovarian
NCI-H23 lung = test system: NCI-H23 lung
786-0 renal = test system: 786-0 renal
CAKI-1 renal = test system: CAKI-1 renal
RXF 393 renal = test system: RXF 393 renal

SMILES: Cc1ccc(NC(=O)c2cccc(C(C)(C)C#N)c2)cc1Nc1ccc2ncn(C)c(=O)c2c1
- GI50 (A549 NSCLC): 3.11 µM
- TGI (A549 NSCLC): > 100 µM
- GI50 (M14 melanoma): 0.0119 µM
- TGI (M14 melanoma): 0.106 µM
- GI50 (HOP-92 NSCLC): 0.593 µM
- TGI (HOP-92 NSCLC): 2.55 µM
- GI50 (A498 renal): 5.55 µM
- TGI (A498 renal): > 100 µM
- GI50 (IGROV1 ovarian): 0.935 µM
- TGI (IGROV1 ovarian): 7 µM
- TGI (MALME-3M melanoma): 0.0178 µM
- GI50 (SN12C renal): 0.698 µM
- TGI (SN12C renal): > 100 µM
- GI50 (RPMI-8226 leukemia): 1.1 µM
- TGI (RPMI-8226 leukemia): 3.33 µM
- GI50 (NCI-H322M lung): 2.62 µM
- TGI (NCI-H322M lung): > 100 µM
- GI50 (LOX IMVI melanoma): 0.0358 µM
- TGI (LOX IMVI melanoma): 1.34 µM
- GI50 (COLO 205 colon): 0.0246 µM
- TGI (COLO 205 colon): 8.52 µM
- GI50 (SK-MEL-28 melanoma): 0.0122 µM
- TGI (SK-MEL-28 melanoma): 0.0749 µM
- GI50 (UO-31 renal): 0.527 µM
- TGI (UO-31 renal): 5.68 µM
- GI50 (MDA-MB-435 melanoma): 0.0617 µM
- TGI (MDA-MB-435 melanoma): > 100 µM
- GI50 (HCT-15 colon): 2.91 µM
- TGI (HCT-15 colon): > 100 µM
- GI50 (T-47D breast): 4.42 µM
- TGI (T-47D breast): > 100 µM
- GI50 (K-562 leukemia): 0.232 µM
- TGI (K-562 leukemia): 1.06 µM
- GI50 (UACC-62 melanoma): 0.0105 µM
- TGI (UACC-62 melanoma): 0.13 µM
- GI50 (SNB-75 CNS): 7.19 µM
- TGI (SNB-75 CNS): > 100 µM
- GI50 (HL-60(TB) leukemia): 0.0135 µM
- TGI (HL-60(TB) leukemia): 0.148 µM
- GI50 (ACHN renal): 2.22 µM
- TGI (ACHN renal): > 100 µM
- GI50 (KM12 colon): 0.803 µM
- TGI (KM12 colon): > 100 µM
- GI50 (HCT-116 colon): 0.136 µM
- TGI (HCT-116 colon): 13.4 µM
- GI50 (SNB-19 CNS): 4.82 µM
- TGI (SNB-19 CNS): > 100 µM
- GI50 (SK-MEL-5 melanoma): 0.0419 µM
- TGI (SK-MEL-5 melanoma): 1.78 µM
- GI50 (NCI-H226 lung): 2.01 µM
- TGI (NCI-H226 lung): > 100 µM
- GI50 (PC-3 prostate): 8.34 µM
- TGI (PC-3 prostate): > 100 µM
- GI50 (U251 glioblastoma): 4.36 µM
- TGI (U251 glioblastoma): > 100 µM
- GI50 (SK-OV-3 ovarian): 4.9 µM
- TGI (SK-OV-3 ovarian): > 100 µM
- GI50 (NCI-H522 lung): 4.09 µM
- TGI (NCI-H522 lung): > 100 µM
- GI50 (HCC-2998 colon): 0.0525 µM
- TGI (HCC-2998 colon): 1.84 µM
- GI50 (NCI/ADR-RES ovarian): 3.06 µM
- TGI (NCI/ADR-RES ovarian): 14.1 µM
- GI50 (SF-295 CNS): 4.63 µM
- TGI (SF-295 CNS): > 100 µM
- GI50 (DU-145 prostate): 3.63 µM
- TGI (DU-145 prostate): > 100 µM
- GI50 (SF-268 CNS): 4.8 µM
- TGI (SF-268 CNS): > 100 µM
- GI50 (SF-539 CNS): 7.1 µM
- TGI (SF-539 CNS): > 100 µM
- GI50 (MOLT-4 leukemia): 1.86 µM
- TGI (MOLT-4 leukemia): 6.08 µM
- GI50 (MCF7 breast): 5.97 µM
- TGI (MCF7 breast): > 100 µM
- GI50 (NCI-H460 NSCLC): 1.47 µM
- TGI (NCI-H460 NSCLC): > 100 µM
- GI50 (BT-549 breast): 6.99 µM
- TGI (BT-549 breast): > 100 µM
- GI50 (SW-620 colon): 0.798 µM
- TGI (SW-620 colon): > 100 µM
- GI50 (CCRF-CEM leukemia): 2.19 µM
- TGI (CCRF-CEM leukemia): 9.99 µM
- GI50 (MDA-MB-231 breast): 0.036 µM
- TGI (MDA-MB-231 breast): 27.3 µM
- GI50 (OVCAR-8 ovarian): 2.85 µM
- TGI (OVCAR-8 ovarian): > 100 µM
- GI50 (OVCAR-4 ovarian): 5.43 µM
- TGI (OVCAR-4 ovarian): > 100 µM
- GI50 (HT29 colon): 0.0579 µM
- TGI (HT29 colon): > 100 µM
- GI50 (HS 578T breast): 1.92 µM
- TGI (HS 578T breast): 9.66 µM
- GI50 (TK-10 renal): 2.92 µM
- TGI (TK-10 renal): 60.6 µM
- GI50 (MDA-MB-468 breast): 3.53 µM
- TGI (MDA-MB-468 breast): 44.1 µM
- GI50 (SR leukemia): 0.153 µM
- TGI (SR leukemia): 0.908 µM
- GI50 (EKVX NSCLC): 6.79 µM
- TGI (EKVX NSCLC): > 100 µM
- GI50 (HOP-62 NSCLC): 1.8 µM
- TGI (HOP-62 NSCLC): > 100 µM
- GI50 (OVCAR-3 ovarian): 3.22 µM
- TGI (OVCAR-3 ovarian): > 100 µM
- GI50 (NCI-H23 lung): 0.048 µM
- TGI (NCI-H23 lung): 1.43 µM
- GI50 ([…]-0 renal): 4.85 µM
- TGI (786-0 renal): > 100 µM
- GI50 (CAKI-1 renal): 0.343 µM
- TGI (CAKI-1 renal): > 100 µM
- GI50 (RXF 393 renal): 5.05 µM
- TGI (RXF 393 renal): > 100 µM
